15 compounds from patent publication US20230295200A1 (REGENTS OF THE UNIVERSITY OF MICHIGAN, priority 2022, published 2023) can be followed below.

Each structure is given as a SMILES string.

For one assay, the target named is T1, STAT6 protein (Homo sapiens, UniProt P42226).
T1 sequence (P42226 1-847): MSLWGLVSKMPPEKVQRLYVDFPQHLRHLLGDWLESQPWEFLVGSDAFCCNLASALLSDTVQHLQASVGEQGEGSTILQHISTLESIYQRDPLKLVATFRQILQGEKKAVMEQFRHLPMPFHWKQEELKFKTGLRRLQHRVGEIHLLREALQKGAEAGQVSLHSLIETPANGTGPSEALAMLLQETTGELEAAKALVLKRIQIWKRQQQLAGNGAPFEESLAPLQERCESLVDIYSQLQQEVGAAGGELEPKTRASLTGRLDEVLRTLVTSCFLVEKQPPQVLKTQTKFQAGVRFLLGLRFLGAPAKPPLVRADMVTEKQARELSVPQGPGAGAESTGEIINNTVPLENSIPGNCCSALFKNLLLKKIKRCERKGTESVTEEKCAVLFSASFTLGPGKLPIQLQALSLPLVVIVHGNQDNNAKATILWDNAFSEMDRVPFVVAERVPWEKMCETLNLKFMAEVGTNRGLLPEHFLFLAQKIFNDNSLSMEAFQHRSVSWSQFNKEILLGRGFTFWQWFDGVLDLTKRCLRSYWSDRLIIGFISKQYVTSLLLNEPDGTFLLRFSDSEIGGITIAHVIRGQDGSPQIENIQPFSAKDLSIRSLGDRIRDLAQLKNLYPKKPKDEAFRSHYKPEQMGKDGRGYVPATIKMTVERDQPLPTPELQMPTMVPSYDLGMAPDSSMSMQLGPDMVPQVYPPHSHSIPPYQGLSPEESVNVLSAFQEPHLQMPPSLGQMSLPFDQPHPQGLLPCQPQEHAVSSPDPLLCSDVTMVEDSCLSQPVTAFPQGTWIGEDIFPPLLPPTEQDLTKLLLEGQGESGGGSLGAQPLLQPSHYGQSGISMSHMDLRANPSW
Kind of assay: Fluorescence polarization (FP) binding assay, STAT6. The note with it: FP competition, 5 nM fluorescein-labeled tracer, 200 nM protein, PBS pH7.4; read-out: Binding STAT6. In short, it runs like this:
(§1)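 Fluorescein-labelled tracer (5 nM) with 200 nM STAT5 and/or STAT6 protein in PBS pH 7.4, 0.01% BGG, 0.01% Tween-20, 2 mM DTT. Mixed 15 min, then equilibrated 1 h at room temperature; read by fluorescence polarization, constants from nonlinear curve fitting.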

In another assay the target is T2, STAT5A (Homo sapiens, UniProt P42229).
T2 sequence (P42229 1-794): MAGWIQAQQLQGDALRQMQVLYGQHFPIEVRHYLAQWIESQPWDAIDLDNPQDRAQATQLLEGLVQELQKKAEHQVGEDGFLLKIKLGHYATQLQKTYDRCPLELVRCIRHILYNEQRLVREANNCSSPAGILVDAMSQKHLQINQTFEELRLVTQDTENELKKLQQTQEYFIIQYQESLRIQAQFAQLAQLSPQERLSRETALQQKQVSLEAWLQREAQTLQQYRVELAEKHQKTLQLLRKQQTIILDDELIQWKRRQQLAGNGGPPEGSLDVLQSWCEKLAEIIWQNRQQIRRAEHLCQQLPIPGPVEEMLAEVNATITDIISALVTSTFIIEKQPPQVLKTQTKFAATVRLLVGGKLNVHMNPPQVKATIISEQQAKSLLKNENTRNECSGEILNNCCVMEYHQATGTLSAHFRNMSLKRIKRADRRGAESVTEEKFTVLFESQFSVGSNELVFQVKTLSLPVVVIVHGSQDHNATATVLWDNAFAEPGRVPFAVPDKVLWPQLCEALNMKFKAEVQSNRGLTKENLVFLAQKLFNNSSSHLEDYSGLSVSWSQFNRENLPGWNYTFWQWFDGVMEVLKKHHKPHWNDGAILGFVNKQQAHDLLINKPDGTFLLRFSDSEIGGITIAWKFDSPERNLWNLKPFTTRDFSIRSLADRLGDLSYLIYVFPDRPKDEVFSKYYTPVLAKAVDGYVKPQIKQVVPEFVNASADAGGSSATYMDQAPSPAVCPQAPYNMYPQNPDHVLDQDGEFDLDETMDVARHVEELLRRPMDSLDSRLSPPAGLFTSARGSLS
Kind of assay: Fluorescence polarization (FP) binding assay, STAT5A. Particulars: FP competition, 5 nM fluorescein-labeled tracer, 200 nM protein, PBS pH7.4. In short, it runs like this: as §1
In general terms: In fluorescence polarisation assays a small probe gives low polarisation when free and higher when bound to something large.

For `CC(C)(C)[C@H](NC(=O)c1cc2cc(C(F)(F)P(=O)(O)O)ccc2s1)C(=O)N1CCCCC[C@H]1C(=O)N1CC[C@H](c2ccccc2)C1` [Compound 185, ((2-(((S)-3,3-dimethyl-1-oxo-1-((S)-2-((R)-3-phenylpyrrolidine-1-carbonyl)azepan-1-yl)butan-2-yl)carbamoyl)benzo[b]thiophen-5-yl)difluoromethyl)phosphonic acid], the Ki on STAT6 protein and on STAT5A was 1000 to 10000 nM in each case.
`CC(C)(C)[C@H](NC(=O)c1cc2cc(C(F)(F)P(=O)(O)O)ccc2s1)C(=O)N1CCCCC[C@H]1C(=O)N1CC[C@@H](c2ccccc2)C1` [Compound 186, ((2-(((S)-3,3-dimethyl-1-oxo-1-((S)-2-((S)-3-phenylpyrrolidine-1-carbonyl)azepan-1-yl)butan-2-yl)carbamoyl)benzo[b]thiophen-5-yl)difluoromethyl)phosphonic acid]: the figures for the Ki at STAT6 protein and on STAT5A were over 10000 nM and 1000 to 10000 nM, respectively.
On the same counts, the results for `CC(C)(C)[C@H](NC(=O)c1cc2cc(C(F)(F)P(=O)(O)O)ccc2s1)C(=O)N1CCCCC[C@H]1C(=O)N1Cc2ccccc2C1` [Compound 187, (difluoro(2-(((S)-1-((S)-2-(isoindoline-2-carbonyl)azepan-1-yl)-3,3-dimethyl-1-oxobutan-2-yl)carbamoyl)benzo[b]thiophen-5-yl)methyl)phosphonic acid] are 1000 to 10000 nM and over 10000 nM.
The corresponding values for `CC(C)(C)[C@H](NC(=O)c1cc2cc(C(F)(F)P(=O)(O)O)ccc2s1)C(=O)N1CCCCC[C@H]1C(=O)Nc1ncc(-c2ccccc2)s1` [Compound 188, ((2-(((S)-3,3-dimethyl-1-oxo-1-((S)-2-((5-phenylthiazol-2-yl)carbamoyl)azepan-1-yl)butan-2-yl)carbamoyl)benzo[b]thiophen-5-yl)difluoromethyl)phosphonic acid] are 1000 to 10000 nM and 100 to 1000 nM.
For `CC(C)(C)[C@H](NC(=O)c1cc2cc(C(F)(F)P(=O)(O)O)ccc2s1)C(=O)N1Cc2ccccc2CC1C(=O)N1CCO[C@H](c2ccccc2)C1` (stereo partly drawn) [Compound 189, ((2-(((2S)-3,3-dimethyl-1-oxo-1-(3-((R)-2-phenylmorpholine-4-carbonyl)-3,4-dihydroisoquinolin-2(1H)-yl)butan-2-yl)carbamoyl)benzo[b]thiophen-5-yl)difluoromethyl)phosphonic acid], the Ki lay within 100 to 1000 nM on STAT6 protein and 1000 to 10000 nM on STAT5A.
The corresponding values for `CC(C)(C)[C@H](NC(=O)c1cc2cc(C(F)(F)P(=O)(O)O)ccc2s1)C(=O)N1Cc2ccccc2CC1C(=O)N1CCC[C@H](c2ccccc2)C1` (stereo partly drawn) [Compound 190, ((2-(((2S)-3,3-dimethyl-1-oxo-1-(3-((R)-3-phenylpiperidine-1-carbonyl)-3,4-dihydroisoquinolin-2(1H)-yl)butan-2-yl)carbamoyl)benzo[b]thiophen-5-yl)difluoromethyl)phosphonic acid] are 100 to 1000 nM and 1000 to 10000 nM.
On the same counts, the results for `CC(C)(C)[C@H](NC(=O)c1cc2cc(C(F)(F)P(=O)(O)O)ccc2s1)C(=O)N1Cc2ccccc2CC1C(=O)N1CC[C@H](c2ccccc2)C1` (stereo partly drawn) [Compound 191, ((2-(((2S)-3,3-dimethyl-1-oxo-1-(3-((R)-3-phenylpyrrolidine-1-carbonyl)-3,4-dihydroisoquinolin-2(1H)-yl)butan-2-yl)carbamoyl)benzo[b]thiophen-5-yl)difluoromethyl)phosphonic acid] are 1000 to 10000 nM and over 10000 nM.
On the same counts, the results for `CC(C)(C)[C@H](NC(=O)c1cc2cc(C(F)(F)P(=O)(O)O)ccc2s1)C(=O)N1Cc2ccccc2CC1C(=O)N1CC[C@@H](c2ccccc2)C1` (stereo partly drawn) [Compound 192, ((2-(((2S)-3,3-dimethyl-1-oxo-1-(3-((S)-3-phenylpyrrolidine-1-carbonyl)-3,4-dihydroisoquinolin-2(1H)-yl)butan-2-yl)carbamoyl)benzo[b]thiophen-5-yl)difluoromethyl)phosphonic acid] are over 10000 nM and over 10000 nM.
Consider `CC(C)(C)[C@H](NC(=O)c1cc2cc(C(F)(F)P(=O)(O)O)ccc2s1)C(=O)N1Cc2ccccc2CC1C(=O)N1Cc2ccccc2C1` (stereo partly drawn) [Compound 193, (difluoro(2-(((2S)-1-(3-(isoindoline-2-carbonyl)-3,4-dihydroisoquinolin-2(1H)-yl)-3,3-dimethyl-1-oxobutan-2-yl)carbamoyl)benzo[b]thiophen-5-yl)methyl)phosphonic acid], for which the Ki at STAT6 protein and at STAT5A was over 10000 nM in each case.
In the case of `CC(C)(C)[C@H](NC(=O)c1cc2cc(C(F)(F)P(=O)(O)O)ccc2s1)C(=O)N1Cc2ccccc2CC1C(=O)Nc1ncc(-c2ccccc2)s1` (stereo partly drawn) [Compound 194, ((2-(((2S)-3,3-dimethyl-1-oxo-1-(3-((5-phenylthiazol-2-yl)carbamoyl)-3,4-dihydroisoquinolin-2(1H)-yl)butan-2-yl)carbamoyl)benzo[b]thiophen-5-yl)difluoromethyl)phosphonic acid], the Ki on STAT6 protein fell in the range of 1000 to 10000 nM; on STAT5A, 100 to 1000 nM.
Consider `CC(C)(C)[C@H](NC(=O)c1cc2cc(C(F)(F)P(=O)(O)O)ccc2s1)C(=O)N1Cc2ccccc2[C@H]1C(=O)N1CCO[C@H](c2ccccc2)C1` [Compound 195, ((2-(((S)-3,3-dimethyl-1-oxo-1-((S)-1-((R)-2-phenylmorpholine-4-carbonyl)isoindolin-2-yl)butan-2-yl)carbamoyl)benzo[b]thiophen-5-yl)difluoromethyl)phosphonic acid], for which the Ki on STAT6 protein was under 100 nM; at STAT5A it was 1000 to 10000 nM.
`CC(C)(C)[C@H](NC(=O)c1cc2cc(C(F)(F)P(=O)(O)O)ccc2s1)C(=O)N1Cc2ccccc2[C@H]1C(=O)N1CCC[C@H](c2ccccc2)C1` [Compound 196, ((2-(((S)-3,3-dimethyl-1-oxo-1-((S)-1-((R)-3-phenylpiperidine-1-carbonyl)isoindolin-2-yl)butan-2-yl)carbamoyl)benzo[b]thiophen-5-yl)difluoromethyl)phosphonic acid]: the Ki on STAT6 protein was under 100 nM; on STAT5A, 1000 to 10000 nM.
As to `CC(C)(C)[C@H](NC(=O)c1cc2cc(C(F)(F)P(=O)(O)O)ccc2s1)C(=O)N1Cc2ccccc2[C@H]1C(=O)N1CC[C@H](c2ccccc2)C1` [Compound 197, ((2-(((S)-3,3-dimethyl-1-oxo-1-((S)-1-((R)-3-phenylpyrrolidine-1-carbonyl)isoindolin-2-yl)butan-2-yl)carbamoyl)benzo[b]thiophen-5-yl)difluoromethyl)phosphonic acid], the results for the Ki at STAT6 protein and at STAT5A were 1000 to 10000 nM and over 10000 nM, respectively.
On the same counts, the results for `CC(C)(C)[C@H](NC(=O)c1cc2cc(C(F)(F)P(=O)(O)O)ccc2s1)C(=O)N1Cc2ccccc2[C@H]1C(=O)N1CC[C@@H](c2ccccc2)C1` [Compound 198, ((2-(((S)-3,3-dimethyl-1-oxo-1-((S)-1-((S)-3-phenylpyrrolidine-1-carbonyl)isoindolin-2-yl)butan-2-yl)carbamoyl)benzo[b]thiophen-5-yl)difluoromethyl)phosphonic acid] are 100 to 1000 nM and 1000 to 10000 nM.
For the compound `CC(C)(C)[C@H](NC(=O)c1cc2cc(C(F)(F)P(=O)(O)O)ccc2s1)C(=O)N1Cc2ccccc2[C@H]1C(=O)N1Cc2ccccc2C1` [Compound 199, (difluoro(2-(((S)-1-((S)-1-(isoindoline-2-carbonyl)isoindolin-2-yl)-3,3-dimethyl-1-oxobutan-2-yl)carbamoyl)benzo[b]thiophen-5-yl)methyl)phosphonic acid], the Ki on STAT6 protein was 1000 to 10000 nM; on STAT5A, over 10000 nM.
